The source of these data is patent US11918686B2, “Lipid bilayer coated mesoporous silica nanoparticles with a high loading capacity for one or more anticancer agents” (The Regents of the University of California, priority 2013, dated 2024).

Bounds are passed on as bounds.

A short description of data set [1]: Histology of kidney, liver and spleen. In kind it is in vivo, mice. As to conditions: H&E, day 38. As for the experimental part: (§1) (A) The animal treatments are described in the method section. BxPC3 cells were subcutaneously injected into mice 7 days before treatments (gray boxes). These animals received six i.v. injections (red boxes) every 3-6 days (green boxes) for 38 days as shown. The tumor inhibition effect of two-wave treatment was compared to saline, GEM-Lip alone, free GEM, empty liposome, and TGFβi-MSNP. Tumor size was accurately measured 1-2 times per week. Tumor weight was calculated according to the formula Tumor weight (mg)=(length in mm)×(width in mm)2/2. *P<0.05, compared to GEM-Lip group. (B) The animal weights were recorded at indicate time points and expressed for the experimental duration. *P<0.05, compared to saline; #P<0.05, compared to GEM-Lip. (C) Histological analyses of kidney sections were performed by UCLA DLAM diagnostic laboratory services. The sections were stained with hematoxylin/eosin (H&E) and examined by light microscopy. Representative images are shown. Higher magnification images were provided to shown the swelling and edema occur in Bowman's space, a morphological abnormality of GEM-induced renal toxicity. White arrows point to normal Bowman's space in glomerulus, and the black arrows point to the swelling and edema occur in Bowman's space.
Appropriate size sections of the tumor, liver, kidney, and spleen were fixed in 10% formalin and then embedded into paraffin. […]

Data set [2] has as its system cytidine deaminase (CDA); BxPC3 cells. In words: Protection against CDA-mediated GEM inactivation (MTS assay). As to conditions: CDA 100 ng/mL, 1 h at 37° C., then BxPC3 cells 72 h. In kind it is cell-based, human. The method, then: We also assess the ability of the liposome to protect GEM against the effect of on cytidine deaminase (CDA), which plays a key role in drug inactivation (circulatory half-life of <8 minutes) in the clinic. Briefly, free GEM or GEM-laden liposomes were mixed with CDA enzyme at a concentration of 100 ng/mL in the incubation medium for 1 h at 37° C. The incubation media were then added to BxPC3 cells, which were cultured in 96 wells plate for 72 h. IC50 values were determined by the MTS assay for each group. The results were compared to the IC50 values for GEM or GEM-liposomes, not incubated with CDA. […] By contrast, free GEM was not protected against the effect of CDA.
In general terms: Tetrazolium assays rely on reduction of a dye to a coloured formazan, in cell work by metabolically active cells.

The conditions of data set [3]: in the clinic; cited from earlier work.
The nature of another data set: Blood biochemistry. In kind it is in vivo, mice. As to conditions: serum. As for the experimental part: Following the animal experiments described above, the mice were sacrificed on the 38th day and serum was collected by centrifuging the whole blood at 5,000 rpm for 15 min. The biochemical parameters were assayed by UCLA Division of Laboratory Animal Medicine (DLAM) diagnostic laboratory services.

Data set [4] is described as follows: Animal body weight during treatment. Format: in vivo, nude mice. As to conditions: compared to saline-treated BxPC3 tumor-bearing mice. The method, then:
as §1, with “Higher magnification images were provided to shown the swelling and edema occur in Bowman's space, a morphological abnormality of GEM-induced renal toxicity. White arrows point to normal Bowman's space in glomerulus, and the black arrows point to the swelling and edema occur in Bowman's space.” left out
One week after tumor implantation, the BxPC-3 tumor-bearing mice were randomly divided into six groups. […] The body weight and tumor size were accurately recorded one to two times per week. Tumor weight was calculated according to the formula Tumor weight (mg)=(length in mm)×(width in mm)^2/2.

The next data set concerns PDAC. As to conditions: previously untreated PDAC patients with metastatic disease; cited from earlier work.
Data set [5] has as its system Smad2 phosphorylation in PCs. In words: Smad2 activation assay (pSmad2 immunofluorescence). In kind it is cell-based, human. The following applies: PCs treated with 2 ng/mL TGF-β, inhibitor dose of 1 M. As for the experimental part: (A) HDME cells (10^4 cells/mL) and HSM cells (5×10^3 cells/mL) were first stained by CellTracker™ Green CMFDA (Invitrogen, Grand Island, NY) and CellTracker™ Red CMTPX (Invitrogen, Grand Island, NY) according the manufacture's instruction 24 h before experiment. After live cell staining, ECs were treated with 2 ng/mL of TGF-β for 3 h and PCs were treated with […] or TGFβi-MSNP at inhibitor dose of 1 μM for 3 h. Subsequently, both cell types were co-cultured in Matrigel-coated 6-well plates for further incubation of 16 h at 37° C. PC/EC adhesions were quantitatively determined from five fields of three independent samples with the fluorescent microscope (Zeiss, Germany). *, P<0.05. (B) Use of immunofluorescence assay to determine the level of Smad2 phosphorylation. PCs were seeded in 8-well chamber slides. 16 h post cell seeding, PCs were treated with 2 ng/mL TGF-β for 3 h. Subsequently, the cells were treated with TGFβi-laden MSNP at the inhibitor dose of 1 M for 1-24 h. […] The slides were visualized under a fluorescence microscope. (C) The signal intensity of the green channel, reflecting activated Smad2 (pSmad2), was calculated by Image J software (version 1.37c, NIH). *, P<0.05.
Smad2 activation was determined using an immunofluorescent staining in 8-well chamber slides in which 4×10^4 PCs were cultured in each well containing 0.4 mL culture medium. […]

Data set [6] concerns PC coverage of ECs in BxPC3 xenograft. The data set can be described thus: CD31/NG2 co-staining of ECs and PCs in BxPC3 xenograft. In kind it is in vivo, nude mice. As to conditions: i.v., inhibitor dose 1 mg/kg, tumor collected 1-2 h post injection. As for the experimental part:
“T” indicates tumor cells. Arrows point out stroma. (B) Tumor-bearing animals (tumor size of 0.8˜1.0 cm in diameter) were divided into two groups and received i.v. injection of TGFβi-MSNP at inhibitor dose of 1 mg/kg (MSNP dose of 2 mg/kg). Saline and i.v. injection of free inhibitor at same dose were used as control. Tumor tissues were quickly collected 1-2 h post injection and OCT embedded for frozen section and dual color immunohistochemistry staining. The procedure of the staining was provided in the method section. This dual color staining that labels EC maker CD31 in green (FITC) and PC maker NG2 in red (Alexa fluor 594) were used to compare the effect of tumor blood vessel integrity and quantify the extent of PC/EC association. Zoom-in images were provided at higher magnification to show the extent of PC/EC association in each group. PC covered EC were quantified in three random fields in each group. *, P<0.05. […]
The tumor tissues were rapidly embedded by OCT reagent before sectioning to provide 4 m thick slices. […] The slides were visualized under a fluorescence microscope. The PC coverage was counted from three randomly selected fields.

In another data set the test system is tumor. The following applies: animal study; cited from earlier work.

With `Nc1ccn([C@@H]2O[C@H](CO)[C@@H](O)C2(F)F)c(=O)n1` [Free GEM, gemcitabine], the “kidney histology (glomerular swelling and edema of Bowman's space)” value in [1] is “intermediate nephrotoxicity”. In addition, in [2], the “protection of GEM against CDA” value was “not protected”. In addition, the circulatory half-life in [3] was less than 8 min. In addition, in the data set “Blood biochemistry” (day 38), the ALB was 3.2 ± 0.1 g/dL, the ALP is 55.8 ± 9.8 U/L, the ALT is recorded as 42.5 ± 33.8 U/L and the AST amounted to 222 ± 178 U/L. Moreover, in “Blood biochemistry” (day 38), the BUN amounted to 38.0 ± 11.3 mg/dL, the CA worked out at 9.4 ± 0.3 mg/dL, the CHOL was determined as 58.7 ± 4.0 mg/dL and the CK was found to be 512.0 ± 39.6 U/L. In “Blood biochemistry” (day 38), the CO2 turned out to be 20.5 ± 2.8 mEq/L, the CREAT is given as 0.2 ± 0.0 mg/dL, the DBILI came to 0.7 ± 0.5 mg/dL and the GGT was 5.3 ± 1.155 U/L. In the data set “Blood biochemistry” (day 38), this compound gave a GLU of 128.3 ± 16.9 mg/dL, a PHOS of 6.1 ± 1 mg/dL, a TBILI of 0.5 ± 0.2 mg/dL and a TP of 5.1 ± 0.2 g/dL. Moreover, in the data set “Blood biochemistry” (day 38, BUN-to-creatinine ratio), the BUN CR stood at 191 ± 16. In addition, the body weight change result in [4] was “reduced weight gain”. Besides, the median overall survival with PDAC is recorded as 6.7 months.

On to `c1ccc(-c2[nH]ncc2-c2ccnc3ccccc23)nc1` [LY364947], for which the “duration of inhibition of Smad2 phosphorylation” value in data set [5] is 6 h. Further, the “composite fluorescence staining of PC overlap with ECs in tumor” value in data set [6] is “slight but non-significant reduction”.

As for `CC(=O)O[C@H]1C(=O)[C@@]2(C)[C@H]([C@H](OC(=O)c3ccccc3)[C@]3(O)C[C@H](OC(=O)[C@H](O)[C@@H](NC(=O)c4ccccc4)c4ccccc4)C(C)=C1C3(C)C)[C@]1(OC(C)=O)CO[C@@H]1C[C@@H]2O` [paclitaxel], the “increase of GEM content in the tumor” value in the data set with tumor is recorded as 2.8 fold.
